Reference: patent US7169785B2, “Methods and compositions of novel triazine compounds” (Reddy US Therapeutics, Inc., priority 2001, dated 2007)
Entries after “also recorded” stand apart in the source; their conditions may differ.

Legend:
IL6 = test: Inflammation Data of Table 8: IL6 production compared to cells that did not receive compound (stimulus AGE or TNF not given); format: cell-based
From the text: Additional bioactivity data for compounds of the present invention are presented in Table 8, where compounds that have at least the activity of effecting cellular proliferation or at least the activity of modulating inflammation activity, as measured by the assays taught herein, are provided. […] The inclusion of compounds in the categories of the Tables disclosed herein, including this Table, is not to be seen as limiting, in that compounds included in such Tables have at least the activity shown for inclusion in the Table and may have more or other activities. Nor are the Tables to be seen as limiting in that these are the only compounds disclosed herein that have that activity, representative compounds are shown in the Tables that have at least that particular activity for inclusion in the Table. One or more compounds disclosed herein have at least an activity that has utility in treatment of disease states. Note that any hydrogen atoms that are required for any atom to attain its usual valence in a structure presented in Table 8, whether a carbon atom or a heteroatom, should be inferred if it is not specifically indicated.

[1] = tested on: Human aortic smooth muscle cells; test: Smooth muscle cell proliferation assay (anti-proliferation assay, perlecan); format: cell-based; details: for Proliferation Data (result in words): 5 & 10 uM screens; for IC50: Homo sapiens, read-out: Proliferation Data, average IC50
cells = test: Cytotoxicity / lactate dehydrogenase assay and visual observation of cells; format: cell-based
Protocol: Assays for determining the activity of compounds capable of cytotoxic activity include those taught in herein and others that are well known in the art. In general, to determine if there is cytotoxic activity associated with a compound, cells of a particular type, in a growing stage or a quiescient stage, are treated with the compound of interest. Various parameters of cell death or cessation are used to measure the effects of the compound. For example, the amount of nucleic acid or protein synthesis can be measured or visual observation of the state of the cells, such as release from the substrate, can be used to measure the state of the cells.
An appropriate number of cells are plated in four 96-well plates, one plate for “day 0” and three plates for days 1–3. Cells are treated with at least one compound of the present invention in varying concentrations with and without the apoptosis inducer cisplatin (2 μM) (“+cis” or “−cis”). Unteated cells are also assayed with and without cisplatin. After transfection, the plates are incubated at 37° C. overnight.
An appropriate number of cells are plated in four 96-well plates, one plate for “day 0” and three plates for days 1–3. Cells are treated with at least one compound of the present invention in varying concentrations. The negative control cells have normal media conditions, a duplicate set of wells is treated with the composition in which the compound is provided, but there is no added compound and the positive control cells are treated with the apoptosis inducer cisplatin (2 μM). All of the cells are transfected with a vector having a promoter that is responsive to apoptosis conditions. When apoptosis occurs, the promoter is turned on and the lactic dehydrogenase gene is activated and the enzyme protein is made and active. Activity is easily detected with a color change. After transfection, the plates are incubated at 37° C. overnight.
About 8 mls of warmed alpha MEM LDH lysis buffer (2% Triton X100) and about 8 mls of culture media (½ dilution) are combined. Two 96-well v-bottom plates are prepared, one labeled “lysis” and one labeled “supernatant.” To lyse the cells, about 200 μl Alpha MEM lysis buffer (diluted ½) is added to one test plate from which the supernatant has been removed and added to the plate labeled supernatant. After mixing, about 200 μl of lysed cells are transferred to the lysis plate. Both the lysis and supernatant plates are centrifuged at about 1600 rpm for about 10 min. After centrifugation, about 100 μl of both the supernatant or lysate is transferred to corresponding 96-well flat-bottomed plates.
The assay for cytotoxicity uses the Cytotoxicity Detection Kit (LDH) from Roche Diagnostics Corp. (Indianapolis, Ind.). Using the directionts provided, the dye solution is mixed and added each well of the lysate and supernatant plate and incubated for up to 20–25 min at 15–25° C. in the dark.

[2] = observed in the proliferation assay

SMILES: COc1ccc(Nc2nc(NN3CCCCCC3)nc(N(C)C3CCNCC3)n2)cc1Cl
- melting point: 81 °C

SMILES: COc1ccc(Nc2nc(NC3CCCCCC3)nc(N3CCCC3CO)n2)cc1Cl (stereo not shown)
- Inflammation Data (result in words) (IL6; concentration not given): Not Active
- Proliferation Data (result in words) [1]: Did not pass
- cell morphology change / cell death observed under Proliferation Data (words with concentration) (cells; [2]): rounding

SMILES: COc1ccc(Nc2nc(NC3CCCCCC3)nc(N3CCN(C)CC3)n2)cc1Cl
- inhibition at 10 µM (IL6; at 10 uM): 75%
- Proliferation Data (result in words) [1]: Did not pass
- cell death under Inflammation Data (cells; at 5 uM): 25%
- cell death under Inflammation Data (cells; at 10 uM): total cell death
- cell morphology change / cell death observed under Proliferation Data (words with concentration) (cells; [2]): blunting androunding

SMILES: CCc1occc(=O)c1Oc1nc(Nc2ccc(OC)c(Cl)c2)nc(NC2CCCCCC2)n1
- inhibition at 10 µM (IL6; at 10 uM): 48%
- Proliferation Data (result in words) [1]: Not active at 5 & 10 uM
- cell death under Inflammation Data (cells; at 10 uM): 20%

SMILES: COc1ccc(Nc2nc(NC3CCCCCC3)nc(OC3CCCNC3)n2)cc1Cl (stereo not shown)
- inhibition at 10 µM (IL6; at 10 uM): 60%
- IC50 [1]: 4.9 µM
- cell death under Inflammation Data (cells; at 10 uM): 20%

SMILES: COc1ccc(Nc2nc(NC3CCCCCC3)nc(OC3CCNCC3)n2)cc1Cl
- inhibition at 10 µM (IL6; at 10 uM): 85%
- IC50 [1]: 1.85 µM
- cell death under Inflammation Data (cells; at 10 uM): 20%

SMILES: COc1ccc(Nc2nc(NC3CCCCCC3)nc(OCC3CCCN3C)n2)cc1Cl (stereo not shown)
- Inflammation Data, inhibition (IL6; at 10 uM): complete inhibition
- IC50 [1]: 5.25 µM
- cell death under Inflammation Data (cells; at 10 uM): total cell death

SMILES: COc1ccc(Nc2nc(NC3CCCCCC3)nc(OC3CCN(C)CC3)n2)cc1Cl
- inhibition at 10 µM (IL6; at 10 uM): 95%
- cell death under Inflammation Data (cells; at 10 uM): total cell death
- cell morphology change / cell death observed under Proliferation Data (words with concentration) (cells; [2]): rounding at 5 & 10 uM

SMILES: CN1CCC(N(C)c2nc(Nc3ccc(OCc4ccccc4)c(Cl)c3)nc(NC3CCCCCC3)n2)CC1
- Inflammation Data (result in words) (IL6; at 1 uM): Not active
- cell death under Inflammation Data (cells; 5 uM): 30%
- cell death under Inflammation Data (cells; 10 uM): totaldeath

SMILES: CN(c1nc(Nc2ccc(OCc3ccccc3)c(Cl)c2)nc(NC2CCCCCC2)n1)C1CCNCC1
- Inflammation Data (result in words) (IL6; at 1 uM): not active
- inhibition at 5 µM (IL6): 58%
- cell death under Inflammation Data (cells; 5 uM): 50%
- cell death under Inflammation Data (cells; 10 uM): total cell death

SMILES: CN(c1nc(Nc2ccc(O)cc2)nc(NC2CCCCCC2)n1)C1CCNCC1
- inhibition at 5 µM (IL6): 50%
- cell death under Inflammation Data (cells; 5 uM): 20%
- cell death under Inflammation Data (cells; 10 uM): total cell death

SMILES: COc1ccc(Nc2nc(NC3CCCCCC3)nc(NC3CCN(Cc4ccccc4)CC3)n2)cc1F
- inhibition at 5 µM (IL6): 43%
- inhibition at 10 µM (IL6; at 10 uM): 97%
- cell death under Inflammation Data (cells; at 5 uM): 25%
- cell death under Inflammation Data (cells; at 10 uM): total cell death
- cell morphology change / cell death observed under Proliferation Data (words with concentration) (cells; [2]): cell bluntingat 3 uM; also recorded: rounding at 5uM

SMILES: COc1ccc(Nc2nc(NC3CCCCCC3)nc(NC3CCNCC3)n2)cc1
- inhibition at 5 µM (IL6): 69%
- inhibition at 10 µM (IL6; at 10 uM): 88%
- cell death under Inflammation Data (cells; at 5 uM): 20%
- cell death under Inflammation Data (cells; at 10 uM): > 50%

SMILES: COc1ccc(Nc2nc(NC3CCCCCC3)nc(N3CCSCC3)n2)cc1Cl
- melting point: 78 to 80 °C

SMILES: COc1ccc(Nc2nc(Cl)nc(OCC3CCCCC3)n2)cc1F [Compound 114, (4-Chloro-6-cyclohexylmethoxy-[1,3,5]triazin-2-yl)-(3-fluoro-4-methoxy-phenyl)-amine]
- melting point: 98 °C

SMILES: COc1ccc(Nc2nc(Nc3ccc(OC)c(F)c3)nc(OCC3CCCCC3)n2)cc1F [Compound 115, 6-Cyclohexylmethoxy-N,N′-bis-(3-fluoro-4-methoxy-phenyl)-1,3,5-triazine-2,4-diamine]
- melting point: 181 °C

SMILES: CN1CCC(N(C)c2nc(Nc3ccc(O)c(Cl)c3)nc(NC3CCCCCC3)n2)CC1 [drawing 1008]
- inhibition at 5 µM (IL6): 64%
- inhibition at 10 µM (IL6; at 10 uM): 84%
- cell death under Inflammation Data (cells; 10 uM): total cell death
- cell morphology change / cell death observed under Proliferation Data (words with concentration) (cells; human, 24 h): cell bluntingat 3 to 10 uM

SMILES: COc1ccc(Nc2nc(NC3CCCCCC3)nc(NC3CCN(Cc4ccccc4)CC3)n2)cc1Cl [drawing 1010]
- inhibition at 5 µM (IL6): 37%
- inhibition at 10 µM (IL6; at 10 uM): 41%
- cell death under Inflammation Data (cells; at 5 uM): 20%
- cell death under Inflammation Data (cells; at 10 uM): > 50%
- cell morphology change / cell death observed under Proliferation Data (words with concentration) (cells; [2]): cell blunting at 1 uM; also recorded: rounding at 5 uM
